For data set [1], the system named is polychromatic erythrocytes. The following applies: rats male and female, 20 mg/kg intraperitoneally. How it is done: To perform the micronucleus test (Schmid, 1976), different groups of rats (male and female; n=10) received three doses of CBD (500, 1000 and 2000 mg/kg) orally. The negative control group received placebo by gavage and the positive control was treated with cyclophosphamide monohydrate (20 mg/kg—Sigma-Aldrich) intraperitoneally. After 24 hours (cyclophosphamide) and 48 hours (CBD-SINT and vehicle) the end of treatments, the animals were euthanized by decapitation. The femurs were removed, the proximal epiphysis was removed to expose the medullary canal and, with the aid of a 13×4.5 mm needle and 3 mL NaCl solution (150 mM), the marrow was removed, washing the medullary canal with NaCl solution. The material was transferred to glass tubes and centrifuged at 1000 rpm/5 min. After centrifugation, the supernatant was discarded, and the deposit was resuspended with a 4% formaldehyde solution and slightly homogenized with the aid of a Pasteur pipette. A drop of this cell suspension was placed on a clean, dry slide, and then the smear was performed. The slides were dried at room temperature and, after 24 hours, stained with Leishman eosin-methylene blue and subjected to microscopic analysis. To determine the number of micronuclei, 2000 polychromatic erythrocytes were counted per animal (1000 in each slide) using an optical microscope, at 400× magnification. The analysis of the slides was blind and performed by a single evaluator.

The subject of data set [2] is DNA of male and female rats. The following applies: rats male and female, 20 mg/kg intraperitoneally, 24 hours, positive control. How it is done: The negative control group received placebo by gavage and the positive control was treated with cyclophosphamide monohydrate (20 mg/kg—Sigma-Aldrich) intraperitoneally.

The results in this text go back to US11389423B2, “Pharmaceutical composition, excipient for the composition and use of the composition” (priority 2018, dated 2022).

Turning to `O=P1(N(CCCl)CCCl)NCCCO1` (stereo not shown) [cyclophosphamide, cyclophosphamide monohydrate, reference compound], the “average number of MNPCE” value in data set [1] (24 hours, positive control (C+)) is reported as “significant increase”. Further, the “ratio of polychromatic/normochromatic erythrocytes (PCE/NCE ratio)” value in data set [1] (positive control) is on record as “significantly changed”. In data set [2], the “increase in the frequency of damage” value is “approximately 100%” and the “increase in the index of damage” value is on record as “approximately 100%”.
